This note sets out measurements from patent EP0408330A2, “Anti-infective agents, process for their preparation and their use in therapy” (priority 1989, dated 1991).

The test system of one assay is Gram negative bacteria. As to the kind of experiment: In vitro assessment of Gram negative activity (MIC/MBC panel). In kind it is cell-based. How it is done:
(§1) Minimum inhibitory concentrations (MIC), minimum bactericidal concentrations (MBC), rates of killing and the incidence of naturally occurring resistant mutants were determined for silver fusidate prepared according to Example 1. MICs were determined by the plate dilution method using IsoSensitest (IsoSensitest is a Trade Mark) media supplemented where necessary with 5% lysed horse blood. Two inocula were used, 10⁶ and 10⁴ cfu. MICs were read after overnight incubation in the appropriate atmosphere. The plates bearing the 10⁶ inocula were replicated using velvet pads for the determination of MBC which is defined as the lowest antibiotic concentration killing at least 99.9% of the original inoculum.
(§2) 20 strains of the following species were tested:
(§3) Gram negative: Escherichia coli, Enterobacter spp., Klebsiella pneumoniae, Acinetobacter spp., Pseudomonas aeruginosa, Providencia stuartii, Proteus mirabilis, indole-positive Proteae (10 each of Prov. rettgeri and Pr. vulgaris).

The test system of a further assay is MRSA. As to the kind of experiment: MIC / MBC, plate dilution method (MBC by replica plating with velvet pads). To be noted: inoculum of 10⁶ org/ml, 20 strains. In kind it is cell-based, methicillin-resistant Staph. aureus (MRSA). How it is done:
as §1, §2
(§4) Gram positive: methicillin-resistant Staph. aureus (MRSA), methicillin-sensitive Staph. aureus (MSSA), methicillin-resistant Staph. epidermidis (MRSE), Enterocci, Streptococcus pyogenes, Candida albicans, Clostridium spp.

In the next assay the test system is Pseudomas sp. The assay is described as above. In kind it is cell-based, Pseudomonas aeruginosa. How it is done: as §1, §2, §3
Assay [1] relates to various strains of Staphylococcus. The assay is described as follows: Incidence of naturally occurring resistant mutants. To be noted: absence of growth in the presence of 100 µg/ml. In kind it is cell-based. How it is done:
as §1

Assay [2] relates to one particular strain of Staphyloccus. The assay is described as follows: Rates of killing. To be noted: non-growing state compared with growing state. In kind it is cell-based. How it is done: as §1
This is a very interesting observation because it is known that certain strains of Staphylococcus colonize, e.g., the nose, creating in the host a carrier state. Carrier state hosts are a constant source of potential infection both for themselves and those they come in contact with. This is a particularly troublesome source of infections in the hospital environment. It is recognized that the cheapest and most efficient way off removing this problem from a hospital is to remove or discharge the carrier. […]

Assay [3] concerns Gram positive and Gram negative bacteria and Candida albicans. The assay is described as follows: In vitro assessment of spectrum of activity (MIC/MBC panel). In kind it is cell-based. The settings on record: compared to sodium fusidate and silver sulphadiazine. How it is done: as §1, §2, §4, §3
For assay [4], the system named is remaining Gram positive organisms. The assay is described as follows: MIC determination, zinc fusidate panel. In kind it is cell-based. The settings on record: remaining Gram positive organisms of the panel. How it is done:
(§5) MICs were determined for zinc fusidate prepared according to Example 3 using the following Gram positive and Gram negative panels:
(§6) 4 strains of Staphylococcus aureus (2 methicillin-resistant, 2 methicilllin-sensitive) and 2 strains each of coagulase-negative staphylococci, Staph. saprophyticus, Enterococci, Streptococcus pyogenes, Strept. agalactiae, Listeria monocytogenes, diphtheroids and Bacillus spp., 2 strains each of Escherichia coli, Klebsiella pneumoniae, Pseudomonas aeruginosa, Providencia stuartii, Proteus morganii, Salmonella typhimurium, Acinetobacter spp., Citrobacter freundii, Serratia marcescens and Enterobacter cloacae.

Assay [5] deals with coagulase negative Staphylococci. As to the kind of experiment: MIC determination, zinc fusidate panel. In kind it is cell-based. To be noted: 2 strains. As to the method:
as §5, §6

A further assay deals with Gram positive bacteria. The assay is described as follows: MIC determination, zinc fusidate panel, overall assessment. In kind it is cell-based. As to the method:
as §5, §6

In the case of `CC(=O)O[C@H]1C[C@@]2(C)[C@@H](C[C@@H](O)[C@H]3[C@@]4(C)CC[C@@H](O)[C@@H](C)[C@@H]4CC[C@@]32C)/C1=C(\CCC=C(C)C)C(=O)O` [sodium fusidate], in the assay with Gram negative bacteria, the Gram negative activity entry is reported as “total lack of Gram negative activity”.
Consider silver fusidate, for which the MIC range with MRSA lay within 0.13 to 64 µg/mL. Moreover, in the assay on Pseudomas sp., the MBC range is 32 to 64 µg/mL and the MIC range was 32 to 64 µg/mL. Also, the “incidence of silver fusidate resistant mutants” value in [1] is recorded as “too low to be measured”. Also, the rate of killing entry in [2] is listed as “killed more rapidly in a non-growing state”. The spectrum of activity result in assay [3] is recorded as “broad spectrum of activity”.
The compound “silver salt of N¹-(pyrimidin-2-yl) sulphanilamide [silver sulphadiazine, reference compound]” had an MBC range with MRSA (lowest concentration killing at least 99.9% of the original inoculum) of 128 to 256 µg/mL.
With zinc fusidate, the MIC range in [4] was <1 to 10 µg/mL; in [5] it was 10 to 100 µg/mL. In addition, the “activity against Gram positive bacteria” value in the assay on Gram positive bacteria was “demonstrates activity”.
